In patent US8952157B2, “Apoptosis-inducing agents for the treatment of cancer and immune and autoimmune diseases” (AbbVie Inc., priority 2008, dated 2015):

The compounds below were run against GST-Bcl-2 (Homo sapiens (Human), UniProt P10415) (assay: Time Resolved-Fluorescence Resonance Energy Transfer (TR-FRET) Bcl-2 binding assay). Details: GST-Bcl-2 1 nM, F-Bak peptide probe 100 nM, Tb-anti-GST antibody 1 nM; Ki by Wang's equation.
Chain of GST-Bcl-2 (P10415 whole entry): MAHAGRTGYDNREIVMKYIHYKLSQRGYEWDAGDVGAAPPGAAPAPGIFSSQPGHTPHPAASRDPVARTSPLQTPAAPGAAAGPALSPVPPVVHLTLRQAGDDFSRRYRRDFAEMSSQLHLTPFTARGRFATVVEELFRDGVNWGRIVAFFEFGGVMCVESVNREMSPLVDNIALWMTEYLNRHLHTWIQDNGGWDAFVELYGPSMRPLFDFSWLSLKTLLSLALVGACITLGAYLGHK
How it was run: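 Competition TR-FRET: GST-Bcl-2 with fluorescent Bak peptide probe and Tb-anti-GST antibody, compounds serially diluted from 50 μM (2× start, 10% DMSO).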
`CC1(C)CCC(CN2CCN(c3ccc(C(=O)NS(=O)(=O)c4ccc(NCC5CCOCC5)c([N+](=O)[O-])c4)c(Oc4cccc(Cl)c4)c3)CC2)=C(c2ccc(Cl)cc2)C1` [Example 246, 2-(3-chlorophenoxy)-4-(4-{[2-(4-chlorophenyl)-4,4-dimethylcyclohex-1-en-1-yl]methyl}piperazin-1-yl)-N-({3-nitro-4-[(tetrahydro-2H-pyran-4-ylmethyl)amino]phenyl}sulfonyl)benzamide] showed a Ki of 0.065 nM. With `CC1(C)CCC(CN2CCN(c3ccc(C(=O)NS(=O)(=O)c4ccc(NCC5CCOCC5)c([N+](=O)[O-])c4)c(Oc4ccc(N)c(Cl)c4)c3)CC2)=C(c2ccc(Cl)cc2)C1` [Example 247, 2-(4-amino-3-chlorophenoxy)-4-(4-{[2-(4-chlorophenyl)-4,4-dimethylcyclohex-1-en-1-yl]methyl}piperazin-1-yl)-N-({3-nitro-4-[(tetrahydro-2H-pyran-4-ylmethyl)amino]phenyl}sulfonyl)benzamide] the Ki was 0.039 nM. Compound `CC1(C)CCC(CN2CCN(c3ccc(C(=O)NS(=O)(=O)c4ccc(NCC5(N)CCOCC5)c([N+](=O)[O-])c4)c(Oc4cc5cc[nH]c5cc4F)c3)CC2)=C(c2ccc(Cl)cc2)C1` [Example 248, N-[(4-{[(4-aminotetrahydro-2H-pyran-4-yl)methyl]amino}-3-nitrophenyl)sulfonyl]-4-(4-{[2-(4-chlorophenyl)-4,4-dimethylcyclohex-1-en-1-yl]methyl}piperazin-1-yl)-2-[(6-fluoro-1H-indol-5-yl)oxy]benzamide] has a Ki of 0.051 nM. `CC1(C)CCC(CN2CCN(c3ccc(C(=O)NS(=O)(=O)c4ccc(N[C@@H]5CCN(Cc6cscn6)C[C@@H]5O)c([N+](=O)[O-])c4)c(Oc4cc5cc[nH]c5cc4F)c3)CC2)=C(c2ccc(Cl)cc2)C1` [Example 249, 4-(4-{[2-(4-chlorophenyl)-4,4-dimethylcyclohex-1-en-1-yl]methyl}piperazin-1-yl)-2-[(6-fluoro-1H-indol-5-yl)oxy]-N-[(4-{[(3S,4R)-3-hydroxy-1-(1,3-thiazol-4-ylmethyl)piperidin-4-yl]amino}-3-nitrophenyl)sulfonyl]benzamide] gave a Ki of 0.168 nM. With `CC1(C)CCC(CN2CCN(c3ccc(C(=O)NS(=O)(=O)c4ccc(NC5CCOCC5)c([N+](=O)[O-])c4)c(Oc4cc5cc[nH]c5cc4F)c3)CC2)=C(c2ccc(Cl)cc2)C1` [Example 251, 4-(4-{[2-(4-chlorophenyl)-4,4-dimethylcyclohex-1-en-1-yl]methyl}piperazin-1-yl)-2-[(6-fluoro-1H-indol-5-yl)oxy]-N-{[3-nitro-4-(tetrahydro-2H-pyran-4-ylamino)phenyl]sulfonyl}benzamide] the Ki was 0.435 nM. For `CC1(C)CCC(CN2CCN(c3ccc(C(=O)NS(=O)(=O)c4ccc(NN5CCOCC5)c([N+](=O)[O-])c4)c(Oc4cc5cc[nH]c5cc4F)c3)CC2)=C(c2ccc(Cl)cc2)C1` [Example 252, 4-(4-{[2-(4-chlorophenyl)-4,4-dimethylcyclohex-1-en-1-yl]methyl}piperazin-1-yl)-2-[(6-fluoro-1H-indol-5-yl)oxy]-N-{[4-(morpholin-4-ylamino)-3-nitrophenyl]sulfonyl}benzamide], the Ki was 1.15 nM. Compound `CC1(C)CCC(CN2CCN(c3ccc(C(=O)NS(=O)(=O)c4ccc(NN5CCOCC5)c([N+](=O)[O-])c4)c(Oc4cccc(Cl)c4)c3)CC2)=C(c2ccc(Cl)cc2)C1` [Example 253, 2-(3-chlorophenoxy)-4-(4-{[2-(4-chlorophenyl)-4,4-dimethylcyclohex-1-en-1-yl]methyl}piperazin-1-yl)-N-{[4-(morpholin-4-ylamino)-3-nitrophenyl]sulfonyl}benzamide] has a Ki of 0.05 nM. Work on `CC1(C)CCC(CN2CCN(c3ccc(C(=O)NS(=O)(=O)c4ccc(NCCCN5CCNC(=O)C5)c([N+](=O)[O-])c4)c(Oc4ccccc4Cl)c3)CC2)=C(c2ccc(Cl)cc2)C1` [Example 254, 2-(2-chlorophenoxy)-4-(4-{[2-(4-chlorophenyl)-4,4-dimethylcyclohex-1-en-1-yl]methyl}piperazin-1-yl)-N-[(3-nitro-4-{[3-(3-oxopiperazin-1-yl)propyl]amino}phenyl)sulfonyl]benzamide] yielded a Ki of 0.119 nM. `CC1(C)CCC(CN2CCN(c3ccc(C(=O)NS(=O)(=O)c4ccc(NC5CCN(C6CCOCC6)CC5)c([N+](=O)[O-])c4)c(-c4ccc(N)nc4)c3)CC2)=C(c2ccc(Cl)cc2)C1` [Example 255, 2-(6-aminopyridin-3-yl)-4-(4-{[2-(4-chlorophenyl)-4,4-dimethylcyclohex-1-en-1-yl]methyl}piperazin-1-yl)-N-({3-nitro-4-[(1-tetrahydro-2H-pyran-4-ylpiperidin-4-yl)amino]phenyl}sulfonyl)benzamide] was tested, and the Ki was 7.01 nM. `CC1(C)CCC(CN2CCN(c3ccc(C(=O)NS(=O)(=O)c4ccc(NCCCN5CCNC(=O)C5)c([N+](=O)[O-])c4)c(Oc4cc(F)cc5[nH]ccc45)c3)CC2)=C(c2ccc(Cl)cc2)C1` [Example 257, 4-(4-{[2-(4-chlorophenyl)-4,4-dimethylcyclohex-1-en-1-yl]methyl}piperazin-1-yl)-2-[(6-fluoro-1H-indol-4-yl)oxy]-N-[(3-nitro-4-{[3-(3-oxopiperazin-1-yl)propyl]amino}phenyl)sulfonyl]benzamide] gave a Ki of 0.097 nM. With `CC1(C)CCC(CN2CCN(c3ccc(C(=O)NS(=O)(=O)c4ccc(NC[C@@H]5CCCOC5)c([N+](=O)[O-])c4)c(Oc4cc5cc[nH]c5cc4F)c3)CC2)=C(c2ccc(Cl)cc2)C1` [Example 258, 4-(4-{[2-(4-chlorophenyl)-4,4-dimethylcyclohex-1-en-1-yl]methyl}piperazin-1-yl)-2-[(6-fluoro-1H-indol-5-yl)oxy]-N-[(3-nitro-4-{[(3S)-tetrahydro-2H-pyran-3-ylmethyl]amino}phenyl)sulfonyl]benzamide] the Ki was 0.083 nM. In the case of `CC1(C)CCC(CN2CCN(c3ccc(C(=O)NS(=O)(=O)c4ccc(NC[C@H]5CCCOC5)c([N+](=O)[O-])c4)c(Oc4cc5cc[nH]c5cc4F)c3)CC2)=C(c2ccc(Cl)cc2)C1` [Example 259, 4-(4-{[2-(4-chlorophenyl)-4,4-dimethylcyclohex-1-en-1-yl]methyl}piperazin-1-yl)-2-[(6-fluoro-1H-indol-5-yl)oxy]-N-[(3-nitro-4-{[(3R)-tetrahydro-2H-pyran-3-ylmethyl]amino}phenyl)sulfonyl]benzamide], the Ki is reported as 0.165 nM. In the case of `CC1(C)CCC(CN2CCN(c3ccc(C(=O)NS(=O)(=O)c4ccc(NCC5CCOCC5)c([N+](=O)[O-])c4)c(Oc4cccc5c4CCN(C(=O)OC(C)(C)C)C5)c3)CC2)=C(c2ccc(Cl)cc2)C1` [Example 260, tert-butyl 5-(5-(4-{[2-(4-chlorophenyl)-4,4-dimethylcyclohex-1-en-1-yl]methyl}piperazin-1-yl)-2-{[({3-nitro-4-[(tetrahydro-2H-pyran-4-ylmethyl)amino]phenyl}sulfonyl)amino]carbonyl}phenoxy)-3,4-dihydro isoquinoline-2(H)-carboxylate], the Ki is reported as 11.8 nM. `CC1(C)CCC(CN2CCN(c3ccc(C(=O)NS(=O)(=O)c4ccc(NC5CCN(C6CCOCC6)CC5)c([N+](=O)[O-])c4)c(Oc4ccc(N)nc4)c3)CC2)=C(c2ccc(Cl)cc2)C1` [Example 261, 2-[(6-aminopyridin-3-yl)oxy]-4-(4-{[2-(4-chlorophenyl)-4,4-dimethylcyclohex-1-en-1-yl]methyl}piperazin-1-yl)-N-({3-nitro-4-[(1-tetrahydro-2H-pyran-4-ylpiperidin-4-yl)amino]phenyl}sulfonyl)benzamide] showed a Ki of 0.186 nM. `CC1(C)CCC(c2ccc(Cl)cc2)=C(CN2CCN(c3ccc(C(=O)NS(=O)(=O)c4ccc(NCC5CCOCC5)c([N+](=O)[O-])c4)c(Oc4cc5cc[nH]c5cc4F)c3)CC2)C1` [Example 262, 4-(4-{[2-(4-chlorophenyl)-5,5-dimethylcyclohex-1-en-1-yl]methyl}piperazin-1-yl)-2-[(6-fluoro-1H-indol-5-yl)oxy]-N-({3-nitro-4-[(tetrahydro-2H-pyran-4-ylmethyl)amino]phenyl}sulfonyl)benzamide] showed a Ki of 0.276 nM. Compound `COCCNc1ccc(S(=O)(=O)NC(=O)c2ccc(N3CCN(CC4=C(c5ccc(Cl)cc5)CC(C)(C)CC4)CC3)cc2Oc2cc3cc[nH]c3cc2F)cc1[N+](=O)[O-]` [Example 263, 4-(4-{[2-(4-chlorophenyl)-4,4-dimethylcyclohex-1-en-1-yl]methyl}piperazin-1-yl)-2-[(6-fluoro-1H-indol-5-yl)oxy]-N-({4-[(2-methoxyethyl)amino]-3-nitrophenyl}sulfonyl)benzamide] has a Ki of 0.11 nM. For `CC1(C)CCC(CN2CCN(c3ccc(C(=O)NS(=O)(=O)c4ccc(OCC5CCOCC5)c([N+](=O)[O-])c4)c(Oc4cc5cc[nH]c5cc4F)c3)CC2)=C(c2ccc(Cl)cc2)C1` [Example 264, 4-(4-{[2-(4-chlorophenyl)-4,4-dimethylcyclohex-1-en-1-yl]methyl}piperazin-1-yl)-2-[(6-fluoro-1H-indol-5-yl)oxy]-N-{[3-nitro-4-(tetrahydro-2H-pyran-4-ylmethoxy)phenyl]sulfonyl}benzamide], the Ki was 0.068 nM. In the case of `CC1(C)CCC(CN2CCN(c3ccc(C(=O)NS(=O)(=O)c4ccc(NCC5CCOCC5)c([N+](=O)[O-])c4)c(Oc4ccc5[nH]cc(Cl)c5c4)c3)CC2)=C(c2ccc(Cl)cc2)C1` [Example 265, 2-[(3-chloro-1H-indol-5-yl)oxy]-4-(4-{[2-(4-chlorophenyl)-4,4-dimethylcyclohex-1-en-1-yl]methyl}piperazin-1-yl)-N-({3-nitro-4-[(tetrahydro-2H-pyran-4-ylmethyl)amino]phenyl}sulfonyl)benzamide], the Ki is reported as 0.363 nM. `CC1(C)CCC(CN2CCN(c3ccc(C(=O)NS(=O)(=O)c4ccc(NCC5CCOCC5)c([N+](=O)[O-])c4)c(Oc4cccc5[nH]cc(Cl)c45)c3)CC2)=C(c2ccc(Cl)cc2)C1` [Example 266, 2-[(3-chloro-1H-indol-4-yl)oxy]-4-(4-{[2-(4-chlorophenyl)-4,4-dimethylcyclohex-1-en-1-yl]methyl}piperazin-1-yl)-N-({3-nitro-4-[(tetrahydro-2H-pyran-4-ylmethyl)amino]phenyl}sulfonyl)benzamide] was tested, and the Ki was 0.81 nM.
